According to article PMC4413606, “Identification of a new class of natural product MDM2 inhibitor: In vitro and in vivo anti-breast cancer activities and target validation” (Oncotarget, 2014):

Target: T1, MDM2 (Homo sapiens, UniProt Q00987)
T1 construct: GST-MDM2
Experiment: fluorescence polarization competitive binding assay (PMDM6-F tracer); also cellular thermal shift assay in MCF-7 and MDA-MB-231 cells

T1 sequence (Q00987 whole entry): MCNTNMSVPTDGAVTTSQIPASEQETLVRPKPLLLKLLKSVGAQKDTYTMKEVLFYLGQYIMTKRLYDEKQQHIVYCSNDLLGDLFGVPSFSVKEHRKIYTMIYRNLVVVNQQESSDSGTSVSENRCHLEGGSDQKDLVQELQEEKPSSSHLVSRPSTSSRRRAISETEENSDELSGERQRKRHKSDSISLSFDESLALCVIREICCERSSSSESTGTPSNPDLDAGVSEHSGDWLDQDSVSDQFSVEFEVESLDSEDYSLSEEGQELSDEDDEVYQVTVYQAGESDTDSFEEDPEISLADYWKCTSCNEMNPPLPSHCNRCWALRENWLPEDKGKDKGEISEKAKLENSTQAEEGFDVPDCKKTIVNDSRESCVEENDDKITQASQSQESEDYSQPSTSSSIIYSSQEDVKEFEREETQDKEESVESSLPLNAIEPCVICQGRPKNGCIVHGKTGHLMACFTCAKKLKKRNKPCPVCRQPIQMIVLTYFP

Ki: 0.27 µM
Substance: JapA
